Consider one compound from patent US7141553B2, “A3AR agonists for the treatment of inflammatory arthritis” (Can-Fite Biopharma Ltd. Israel, priority 2002, dated 2006).

In one data set the test system is healthy men. Nature of the data set: Repeat dose study in healthy men, safety and tolerability. It counts as in vivo, human. The protocol:
Two clinical studies were carried out: a single dose study and a repeat dose study. Both studies were parallel-group, double-blind, dose-rising, and placebo-controlled in design.
In the single dose study, 15 healthy men (3 groups of 5) received a single oral dose of IB-MECA (1, 5 or 10 mg) or placebo. In each group, 1 subject received placebo. In the repeated dose study, 28 healthy men (4 groups of 7) received repeated oral doses of IB-MECA (2, 3, 4 or 5 mg) or placebo every 12 h for 7 days. In each group, 2 subjects received placebo.
Healthy young men, aged 18–45 years.
In the single dose study, a solution with IB-MECA powder in 30% Cremophor RH40 (BASF) was used. In the repeated dose study, an aqueous 0.5% methylcellulose suspension (Methocel A4M Premium, The Dow Chemical Company) was used. In both studies, the study medication was taken orally as a drink, followed by 50 ml of tap water.
The following procedures were done: • Safety assesment: laboratory assessments (routine biochemistry and urinalysis), physical examination, 12-lead ECG, ambulatory ECG, pulmonary function testing (FEV1), vital signs (semi-recumbent in the single dose study; semi-recumbent and standing in the repeat dose study). Adverse events were recorded throughout both studies. • Determination of IB-MECA blood level: in the single dose study blood samples for assay of IB-MECA were taken immediately before and at 0.25, 0.5, 1, 2, 4, 8, 12, 24, and 48 h after dosing; in the repeat dose study—blood samples were taken immediately before and at 0.25, 0.5, 1, 2, 4, 8, and 12 h after dosing on Day 1, before dosing on Days 2–6, and before and at 0.25, 0.5, 1, 2, 4, 8, 12, and 24 h after dosing on Day 7.
Data from all subjects who received IB-MECA were included in the analysis of safety and tolerability (adverse events and laboratory safety variables). Numerical data and parameters were summarised using means or medians, and other descriptive statistics, according to the type and distribution of the data.

For data set [1], the system named is adjuvant induced arthritis. Kind of data set: Adjuvant arthritis model in Lewis rats. It counts as in vivo, rat.

As for `CNC(=O)[C@H]1O[C@@H](n2cnc3c(NCc4cccc(I)c4)ncnc32)[C@H](O)[C@@H]1O` [IB-MECA, N6-(3-iodobenzyl)-adenosine-5′-N-methyl-uronamide], the safety profile entry in the data set with healthy men (2-5 mg every 12 h for 7 days, vital signs, physical examination, FEV1, ECG) is listed as “acceptable safety profile”. Further, in the data set on healthy men (Day 1 of repeated dosing, effect smaller on Day 7), the heart rate entry is listed as “dose-related increase in heart rate”. In addition, in the data set with healthy men (repeat doses of up to 4 mg 12-hourly), the tolerability result was “safe and well tolerated”. Moreover, the figures for the “adverse events within 12 h of dosing” value with healthy men (repeated doses of 5 mg 12-hourly) and in the data set with healthy men (repeated doses of up to 4 mg 12-hourly) were 13 and 2, respectively. Moreover, in the data set on healthy men (twice daily administration), the maximal tolerated dose is 4 mg. For the same compound, the “inflammation as assessed by the inflammation intensity score” value in data set [1] (1 μg/day PO, FIG. 1B) was “significant reduction”; in data set [1] (10 μg/kg PO a day, treatment from day 7 after disease induction, FIG. 1A), “effective in abolishing almost completely the inflammation”; in data set [1] (100 μg/kg PO a day, treatment from day 7 after disease induction, FIG. 1A) it was “effective in abolishing almost completely the inflammation”. Besides, the “histological picture of the joint” value in data set [1] (10 μg a day, FIG. 3B, untreated shows destruction of synovial tissue and bone) is recorded as “appeared completely normal”. Besides, the appearance of paws entry in data set [1] (10 μg/kg a day PO, untreated rat paws extremely swollen and red) is recorded as “normal appearing paws”.
